± gives the uncertainty stated by the source.
What was measured:
[1] = test system: NCI-H596; assay: % viability under drug (72 h drug + 72 h recovery), miRNA mimic relative to NTC in DMSO; higher = more surviving cells; conditions: drug used in drug arm: paclitaxel 6 uM; treatment: drug
Description: (§1)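 26 miRNA mimics were transfected into 8 cancer cell lines in triplicate. 48 h post-transfection, cells were treated 72 h with DMSO or a line-specific drug, then recovered 72 h drug-free. Drugs: COLO-205 AZ628 1 uM, MKN-45 crizotinib 1 uM, NCI-H596 paclitaxel 6 uM, EVSA-T GDC-0980 2.5 uM, M14 AZ628 1 uM, HCC-1954 GDC-0980 2.5 uM, NCI-H441 carboplatin 2.5 uM, SKBr3 lapatinib 1 uM. Surviving cells are expressed as % of NTC-transfected cells in DMSO (the NTC drug arm itself is about 30-50%), mean +- SEM.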

[2] = test system: COLO-205; assay: as above; conditions: drug used in drug arm: AZ628 1 uM; treatment: drug
Description: as §1

[3] = test system: EVSA-T; assay: as above; conditions: drug used in drug arm: GDC-0980 2.5 uM; treatment: drug
Description: as §1

[4] = test system: NCI-H441; assay: as above; conditions: drug used in drug arm: carboplatin 2.5 uM; treatment: drug
Description: as §1

[5] = test system: MKN-45; assay: as above; conditions: drug used in drug arm: crizotinib 1 uM; treatment: drug
Description: as §1

[6] = test system: SK-BR-3; assay: as above; conditions: drug used in drug arm: lapatinib 1 uM; treatment: drug
Description: as §1

[7] = test system: HCC-1954; assay: as above; conditions: drug used in drug arm: GDC-0980 2.5 uM; treatment: drug
Description: as §1

[8] = test system: M14; assay: as above; conditions: drug used in drug arm: AZ628 1 uM; treatment: drug
Description: as §1

[9] = test system: PC9; assay: cell count fold change with erlotinib, miRNA mimic vs non-targeting control (log2 ratio); higher = more drug-tolerant survivors than NTC; conditions: erlotinib 1 µM; 72 h drug + 72 h drug-free recovery; perturbation: miRNA mimic
[10] = test system: NCI-H596; assay: % viability in DMSO, miRNA mimic relative to NTC in DMSO; higher = less cytotoxic; conditions: drug used in drug arm: paclitaxel 6 uM; treatment: DMSO
Description: as §1

[11] = test system: COLO-205; assay: as above; conditions: drug used in drug arm: AZ628 1 uM; treatment: DMSO
Description: as §1

[12] = test system: EVSA-T; assay: as above; conditions: drug used in drug arm: GDC-0980 2.5 uM; treatment: DMSO
Description: as §1

[13] = test system: NCI-H441; assay: as above; conditions: drug used in drug arm: carboplatin 2.5 uM; treatment: DMSO
Description: as §1

[14] = test system: MKN-45; assay: as above; conditions: drug used in drug arm: crizotinib 1 uM; treatment: DMSO
Description: as §1

[15] = test system: SK-BR-3; assay: as above; conditions: drug used in drug arm: lapatinib 1 uM; treatment: DMSO
Description: as §1

[16] = test system: HCC-1954; assay: as above; conditions: drug used in drug arm: GDC-0980 2.5 uM; treatment: DMSO
Description: as §1

[17] = test system: M14; assay: as above; conditions: drug used in drug arm: AZ628 1 uM; treatment: DMSO
Description: as §1

| Sequence | % viability under drug [1] | % viability under drug [2] | % viability under drug [3] | % viability under drug [4] | % viability under drug [5] | % viability under drug [6] | % viability under drug [7] | % viability under drug [8] | cell count fold change with erlotinib [9] | % viability in DMSO [10] | % viability in DMSO [11] | % viability in DMSO [12] | % viability in DMSO [13] | % viability in DMSO [14] | % viability in DMSO [15] | % viability in DMSO [16] | % viability in DMSO [17] |
| --- | --- | --- | --- | --- | --- | --- | --- | --- | --- | --- | --- | --- | --- | --- | --- | --- | --- |
| AAAAGUAAUUGUGGUUUUUGCC | 0.738 ± 0.0075% | 46.4 ± 1.6% | 0.3585 ± 0.0025% | 24.2 ± 3.6% | 4.45 ± 0.12% | 39.2 ± 11% | 2.67 ± 0.17% | 21.9 ± 1.3% | 0.561 | 98.8 ± 8.3% | 95 ± 6.9% | 71.9 ± 2.7% | 106 ± 7.8% | 156 ± 2.2% | 80.3 ± 4.8% | 110 ± 9.3% | 85.4 ± 3.8% |
| AAGUGCCGCCAUCUUUUGAGUGU | 0.265 ± 0.011% | 30.8 ± 0.9% | 0.157% | 7.71 ± 2.4% | 0.444 ± 0.042% | 8.32 ± 0.77% | 0.919 ± 0.19% | 1.98 ± 0.13% | -4.45 | 37.5 ± 5.6% | 100.8 ± 0.28% | 12.3 ± 1.3% | 13.71 ± 0.039% | 35.27 ± 0.22% | 22.2 ± 6.5% | 11.8 ± 0.37% | 15.7 ± 1.4% |
| UCUACAAAGGAAAGCGCUUUCU | 2.12 ± 0.19% | 47.79 ± 0.091% | 1.13 ± 0.19% | 12.8 ± 1.1% | 1.63 ± 0.29% | 26 ± 2.1% | 2.02 ± 0.14% | 6.38 ± 0.2% | 0.22 | 80.5 ± 9.8% | 109 ± 3.9% | 37.4 ± 6.7% | 41.8 ± 3.1% | 48.8 ± 8.7% | 49.1 ± 3.5% | 68.8 ± 1.8% | 63 ± 19% |
| UAGGUAGUUUCAUGUUGUUGGG | 1.48 ± 0.34% | 34.7 ± 0.96% | 0.1635 ± 0.0015% | 6.39 ± 0.21% | 1.52 ± 0.25% | 16.1 ± 2.1% | 1.26 ± 0.1% | 6.29 ± 0.61% | -5.25 | 18.4 ± 2.9% | 93.2 ± 4.5% | 11.4 ± 8.3% | 23.3 ± 13% | 49.8 ± 27% | 39.6 ± 14% | 57.1 ± 7.2% | 69.5 ± 28% |
| GAGCCAGUUGGACAGGAGC | 0.418 ± 0.032% | 38.9 ± 1% | 0.0905 ± 0.0095% | 18.1 ± 1.8% | 1.7 ± 0.21% | 48.1 ± 28% | 0.433 ± 0.085% | 6.67 ± 1.9% | -4.82 | 66.947 ± 0.021% | 101 ± 6.3% | 28.9 ± 1% | 60.7 ± 17% | 70.7 ± 8% | 178 ± 130% | 34 ± 6.2% | 97.9 ± 14% |
| AACGCCAUUAUCACACUAAAUA | 0.97 ± 0.026% | 43 ± 1.6% | 0.459 ± 0.079% | 10.2 ± 2.8% | 1.35 ± 0.4% | 11.5 ± 1.4% | 2.25 ± 0.44% | 12.8 ± 0.75% | 0.733 | 62.43 ± 0.46% | 106 ± 2% | 23.6 ± 3.1% | 13.2 ± 1.1% | 27.1 ± 3.8% | 22.3 ± 5.5% | 81.2 ± 2.9% | 73.5 ± 3.2% |
| AAAAGUACUUGCGGAUUUUGCU | 2.53 ± 0.066% | 49.9 ± 1.1% | 1.66 ± 0.013% | 11.3 ± 2.9% | 4.2 ± 0.41% | 49.8 ± 2.7% | 4.02 ± 0.49% | 22.8 ± 0.71% | -3.1 | 89.1 ± 8.1% | 101 ± 4.5% | 64.63 ± 0.49% | 67.7 ± 7.8% | 142 ± 17% | 161 ± 7.2% | 100 ± 4.8% | 99.3 ± 19% |
| GCGAGGACCCCUCGGGGUCUGAC | 3.656 ± 0.036% | 43 ± 1.1% | 1.21 ± 0.28% | 7.07 ± 0.39% | 1.84 ± 0.18% | 16.6 ± 6.8% | 2.54 ± 0.19% | 8.07 ± 0.6% | 0.35 | 76.8 ± 10% | 105.2 ± 0.58% | 40.8 ± 0.66% | 21.6 ± 1.6% | 53.2 ± 7% | 48.4 ± 5% | 56.4 ± 10% | 43.3 ± 5.2% |
| AGUUAAUGAAUCCUGGAAAGU | 0.869 ± 0.086% | 43.4 ± 1.2% | 0.344 ± 0.059% | 14.3 ± 0.47% | 1.55 ± 0.042% | 19.2 ± 4% | 1.99 ± 0.45% | 9.17 ± 1.3% | -4.81 | 25.4 ± 6.1% | 101.6 ± 0.44% | 26.1 ± 11% | 61.6 ± 15% | 40.6 ± 10% | 33.3 ± 1.6% | 48.3 ± 2% | 55.5 ± 2.1% |
| GAAUGUUGCUCGGUGAACCCCU | 0.932 ± 0.015% | 36.6 ± 1.2% | 0.08 ± 0.004% | 4.29 ± 0.14% | 0.355 ± 0.046% | 10.1 ± 0.42% | 0.831 ± 0.092% | 3.18 ± 0.17% | -3.27 | 7.07 ± 2.1% | 102 ± 1.1% | 0.953 ± 0.055% | 7.26 ± 0.039% | 8.61 ± 2.6% | 12.4 ± 5.7% | 10.8 ± 1.4% | 17.3 ± 2.9% |
| CAAUGUUUCCACAGUGCAUCAC | 0.731 ± 0.068% | 29.2 ± 4.1% | 0.155 ± 0.049% | 4.19 ± 0.47% | 0.794 ± 0.25% | 9.29 ± 0.1% | 1.26 ± 0.032% | 5.66 ± 1.1% | -2.66 | 15.2 ± 1.5% | 98.6 ± 2% | 2.27 ± 1.2% | 2.78 ± 0.14% | 2.31 ± 0.74% | 16.8 ± 1.4% | 7.62 ± 0.18% | 42.7 ± 9% |
| GUCAUACACGGCUCUCCUCUCU | 0.466 ± 0.077% | 33 ± 2.9% | 0.124 ± 0.028% | 3.92 ± 0.51% | 0.526 ± 0.15% | 12.8 ± 1.4% | 1.04 ± 0.13% | 1.73 ± 0.53% | -5.7 | 9.78 ± 0.74% | 106 ± 3.9% | 3.87 ± 1.8% | 8.42 ± 0.15% | 10.5 ± 0.39% | 17.1 ± 4.5% | 29.6 ± 4.2% | 15.5 ± 2.3% |

— the supplement of paper PMC4976141
